Reference: ChEMBL document CHEMBL1155400, “The design and development of 2-aryl-2-hydroxy ethylamine substituted 1H,7H-pyrido[1,2,3-de]quinoxaline-6-carboxamides as inhibitors of human cytomegalovirus polymerase” (Bioorg Med Chem Lett, 2010)
In brackets after ≈: the same amount, converted by molar mass.

Legend:
[1] = Inhibition of HCMV recombinant DNA polymerase expressed in baculovirus infected SF9 cells after 12 mins by scintillation proximity assay; set-up: species or system Human betaherpesvirus 5
Human betaherpesvirus 5 = experiment: Antiviral activity against Human cytomegalovirus infected in HFF cells by plaque reduction assay; assay type: functional, organism-based; settings: Human betaherpesvirus 5, HFF
[2] = Cytotoxicity against HFF cells after 3 days by […] dye uptake assay; assay type: cell-based; settings: human
[3] = Aqueous solubility of the compound; assay type: physicochemical
[4] = target: T1, DNA polymerase alpha catalytic subunit (Homo sapiens, UniProt P09884); experiment: Inhibition of human recombinant DNA polymerase alpha expressed in baculovirus infected SF9 cells after 12 mins by scintillation proximity assay
T1 sequence (P09884 whole entry): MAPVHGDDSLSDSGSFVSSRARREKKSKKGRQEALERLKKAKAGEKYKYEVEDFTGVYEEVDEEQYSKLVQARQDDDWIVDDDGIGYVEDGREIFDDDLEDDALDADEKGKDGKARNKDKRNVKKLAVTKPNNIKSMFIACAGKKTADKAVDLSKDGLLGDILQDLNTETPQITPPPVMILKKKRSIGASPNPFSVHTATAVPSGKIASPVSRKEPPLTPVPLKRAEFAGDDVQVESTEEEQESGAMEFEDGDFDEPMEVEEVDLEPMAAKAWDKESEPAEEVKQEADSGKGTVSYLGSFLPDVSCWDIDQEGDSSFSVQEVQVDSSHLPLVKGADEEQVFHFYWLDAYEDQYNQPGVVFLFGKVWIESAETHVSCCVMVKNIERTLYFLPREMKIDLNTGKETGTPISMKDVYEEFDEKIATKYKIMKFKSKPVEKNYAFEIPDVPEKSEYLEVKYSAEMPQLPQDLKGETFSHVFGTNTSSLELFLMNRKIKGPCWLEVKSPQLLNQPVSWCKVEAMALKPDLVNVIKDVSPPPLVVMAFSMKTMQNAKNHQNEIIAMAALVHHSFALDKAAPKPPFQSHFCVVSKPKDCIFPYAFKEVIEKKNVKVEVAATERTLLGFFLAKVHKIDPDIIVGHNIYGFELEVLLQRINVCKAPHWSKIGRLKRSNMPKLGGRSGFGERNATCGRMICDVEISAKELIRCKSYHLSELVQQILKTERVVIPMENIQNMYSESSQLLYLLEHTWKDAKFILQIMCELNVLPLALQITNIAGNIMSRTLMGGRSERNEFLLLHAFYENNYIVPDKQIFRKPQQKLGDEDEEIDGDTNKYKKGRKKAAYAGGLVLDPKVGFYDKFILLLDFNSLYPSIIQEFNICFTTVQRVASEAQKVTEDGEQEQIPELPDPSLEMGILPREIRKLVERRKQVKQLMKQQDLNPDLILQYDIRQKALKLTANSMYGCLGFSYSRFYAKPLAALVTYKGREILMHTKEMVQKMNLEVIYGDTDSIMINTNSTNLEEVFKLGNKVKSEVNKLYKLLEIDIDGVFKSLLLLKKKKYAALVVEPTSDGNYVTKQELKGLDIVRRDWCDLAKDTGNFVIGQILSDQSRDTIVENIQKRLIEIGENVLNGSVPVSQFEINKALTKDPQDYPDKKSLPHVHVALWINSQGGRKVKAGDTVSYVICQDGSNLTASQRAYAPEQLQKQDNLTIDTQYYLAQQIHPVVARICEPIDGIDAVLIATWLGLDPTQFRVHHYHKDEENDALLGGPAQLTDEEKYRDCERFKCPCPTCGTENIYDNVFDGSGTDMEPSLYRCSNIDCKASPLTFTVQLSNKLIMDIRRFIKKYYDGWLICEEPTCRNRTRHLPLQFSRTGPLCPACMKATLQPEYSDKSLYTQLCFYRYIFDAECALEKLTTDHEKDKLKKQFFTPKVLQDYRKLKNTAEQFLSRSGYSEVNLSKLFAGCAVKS

[5] = Inhibition of Varicella zoster virus recombinant DNA polymerase expressed in baculovirus infected SF9 cells after 12 mins by scintillation proximity assay; set-up: species or system Human alphaherpesvirus 3
Human alphaherpesvirus 3 = experiment: Antiviral activity against Varicella zoster virus infected in HFF cells by plaque reduction assay; assay type: functional, organism-based; settings: Human alphaherpesvirus 3, HFF

IC50 [1] [nM] | IC50 (Human betaherpesvirus 5) [nM] | Compound | CC50 at 72 h [2] [nM] | further results
690 | 300 | Cn1cc(C(=O)NCc2ccc(Cl)cc2)c(=O)c2cc(CN3CCOCC3)ccc21 | – | –
1280 | – | CCN1C(=O)Cn2cc(C(=O)NCc3ccc(Cl)cc3)c(=O)c3cc(CN4CCOCC4)cc1c32 | – | –
830 | 700 | O=C(NCc1ccc(Cl)cc1)c1cn2c3c(cc(CN4CCOCC4)cc3c1=O)N(CCO)C(=O)C2 | – | –
8 | – | CN(Cc1cc2c3c(c1)c(=O)c(C(=O)NCc1ccc(Cl)cc1)cn3CC(=O)N2C)CC(O)c1cc2ccccc2o1 (racemic) | > 15000 | –
7700 | – | CN(Cc1cc2c3c(c1)c(=O)c(C(=O)NCc1ccc(Cl)cc1)cn3CC(=O)N2C)C[C@H](O)c1cnccn1 | – | –
– | 20000 | Nc1nc2c(ncn2COCCO)c(=O)[nH]1 [ACYCLOVIR] | – | –
130 | 100 | CN(Cc1cc2c3c(c1)c(=O)c(C(=O)NCc1ccc(Cl)cc1)cn3CC(=O)N2C)C[C@@H](O)c1ccccc1 | > 15000 | –
490 | 100 | CN(Cc1cc2c3c(c1)c(=O)c(C(=O)NCc1ccc(Cl)cc1)cn3CC(=O)N2C)C[C@@H](O)c1nccs1 | – | –
400 | 600 | Cn1cc(C(=O)NCc2ccc(Cl)cc2)c(=O)c2cc(CCCO)sc21 | – | –
190 | 100 | CN(Cc1cc2c3c(c1)c(=O)c(C(=O)NCc1ccc(Cl)cc1)cn3CC(=O)N2C)C[C@@H](O)c1ccsc1 | > 15000 | –
5250 | – | CN(Cc1cc2c3c(c1)c(=O)c(C(=O)NCc1ccc(Cl)cc1)cn3CC(=O)N2C)C[C@H](O)c1ccccn1 | – | –
4930 | – | CN(Cc1cc2c3c(c1)c(=O)c(C(=O)NCc1ccc(Cl)cc1)cn3CC(=O)N2C)C[C@H](O)c1ccco1 | – | –
4410 | – | O=C(NCc1ccc(Cl)cc1)c1cn2c3c(cc(CN4CCOCC4)cc3c1=O)N(CCCN1CCOCC1)C(=O)C2 | – | –
97 | 100 | CN(Cc1cc2c3c(c1)c(=O)c(C(=O)NCc1ccc(Cl)cc1)cn3CC(=O)N2C)CC(O)c1csc2ccccc12 (racemic) | > 15000 | –
5720 | – | CN(Cc1cc2c3c(c1)c(=O)c(C(=O)NCc1ccc(Cl)cc1)cn3CC(=O)N2C)C[C@H](O)c1ccsc1 | – | –
180 | 90 | CN(Cc1cc2c3c(c1)c(=O)c(C(=O)NCc1ccc(Cl)cc1)cn3CC(=O)N2C)C[C@H](O)c1cc2ccccc2o1 | > 15000 | –
6200 | – | CN(Cc1cc2c3c(c1)c(=O)c(C(=O)NCc1ccc(Cl)cc1)cn3CC(=O)N2C)C[C@H](O)c1nccs1 | – | –
4550 | – | CN(Cc1cc2c3c(c1)c(=O)c(C(=O)NCc1ccc(Cl)cc1)cn3CC(=O)N2C)C[C@H](O)c1cccnc1 | – | –
1840 | – | O=C(NCc1ccc(Cl)cc1)c1cn2c3c(cc(CN4CCOCC4)cc3c1=O)N(CCCO)C(=O)C2 | – | –
300 | 20 | CN(Cc1cc2c3c(c1)c(=O)c(C(=O)NCc1ccc(Cl)cc1)cn3CC(=O)N2C)C[C@@H](O)c1ccccn1 | > 15000 | –
9160 | – | CN(Cc1cc2c3c(c1)c(=O)c(C(=O)NCc1ccc(Cl)cc1)cn3CC(=O)N2C)C[C@H](O)c1ccccc1 | – | –
76 | 26 | CN(Cc1cc2c(=O)c(C(=O)NCc3ccc(Cl)cc3)cn(C)c2o1)C[C@@H](O)c1ccco1 | – | –
14 | 10 | CN(Cc1cc2cc(CCO)n3cc(C(=O)NCc4ccc(Cl)cc4)c(=O)c(c1)c23)C[C@@H](O)c1cnccn1 | – | solubility [3]: 17 µg/mL (≈ 31.1 µM)
260 | 200 | CN(Cc1cc2c3c(c1)c(=O)c(C(=O)NCc1ccc(Cl)cc1)cn3CC(=O)N2C)C[C@@H](O)c1cnccn1 | – | –
35 | 7 | CN(Cc1cc2c(=O)c(C(=O)NCc3ccc(Cl)cc3)cn(C)c2s1)C[C@@H](O)c1ccco1 | – | solubility [3]: 0.19 µg/mL (≈ 0.391 µM)
620 | 100 | CN1C(=O)Cn2cc(C(=O)NCc3ccc(Cl)cc3)c(=O)c3cc(CN4CCOCC4)cc1c32 | – | IC50 [4]: > 5000 nM; IC50 [5]: 180 nM; solubility [3]: 8.6 µg/mL (≈ 17.9 µM); IC50 (Human alphaherpesvirus 3): 20 nM
4 | 1 | CN(Cc1cc2c3c(c1)c(=O)c(C(=O)NCc1ccc(Cl)cc1)cn3CC(=O)N2C)C[C@@H](O)c1cc2ccccc2o1 | > 15000 | IC50 [4]: > 5000 nM; IC50 [5]: 29 nM; solubility [3]: 0.94 µg/mL (≈ 1.61 µM); IC50 (Human alphaherpesvirus 3): 4 nM
110 | 10 | CN(Cc1cc2c3c(c1)c(=O)c(C(=O)NCc1ccc(Cl)cc1)cn3CC(=O)N2C)C[C@@H](O)c1ccco1 | > 15000 | –
150 | 10 | CN(Cc1cc2c3c(c1)c(=O)c(C(=O)NCc1ccc(Cl)cc1)cn3CC(=O)N2C)C[C@@H](O)c1cccnc1 | > 15000 | –
42 | – | CN(Cc1cc2c3c(c1)c(=O)c(C(=O)NCc1ccc(Cl)cc1)cn3CC(=O)N2C)CC(O)c1ccc2ccccc2n1 (racemic) | > 15000 | –
